# In patent US20180360766A1, “OVARIAN CANCER SPECIFICALLY TARGETED BIODEGRADABLE AMPHIPHILIC POLYMER, POLYMER VESICLE PREPARED THEREBY AND USE THEREOF” (BRIGHTGENE BIO-MEDICAL TECHNOLOGY CO., LTD., priority 2016, published 2018):
# Structures can show the parent of a compound that is named as a salt.
# What was measured:
# A2780 cells = experiment: Toxicity of drug-loaded vesicles to A2780 by MTT; type: cell-based; details: Homo sapiens; A2780, CPT.HCl, 4 h co-cultivation + 44 h; transferrin-CLPs with 30% transferrin
# [1] = system: A2780 subcutaneous ovarian cancer; experiment: Antitumor effect, A2780 subcutaneous ovarian cancer; details: at 10th day
# in vivo = details: Balb/C nude, mouse, 10 mg/kg
half-life (in vivo) [min],SMILES,IC50 (A2780 cells) [mg/L],body weight decrease [1] [%]
–,"CCc1c2c(nc3ccc(OC(=O)N4CCC(N5CCCCC5)CC4)cc13)-c1cc3c(c(=O)n1C2)COC(=O)[C@]3(O)CC [CPT.HCl, irinotecan hydrochloride]",4.11,18
16.2,"COc1cccc2c1C(=O)c1c(O)c3c(c(O)c1C2=O)C[C@@](O)(C(=O)CO)C[C@@H]3O[C@H]1C[C@H](N)[C@H](O)[C@H](C)O1 [DOX.HCl, doxorubicin hydrochloride]",–,–
